Among the data in PubChem BioAssay (NCI) are TGI values, retold here.

Holding throughout (assay): growth of human tumour cells (NCI), 48 h
Assay [1] has as its system UACC-62 melanoma.
In assay [2] the test system is CCRF-CEM leukemia.
The subject of assay [3] is NCI-H460 lung.
For assay [4], the system named is IGROV1 ovarian.
Assay [5] concerns COLO 205 colon.
In assay [6] the test system is SK-MEL-28 melanoma.
The subject of assay [7] is OVCAR-3 ovarian.
For assay [8], the system named is MDA-MB-435.
Assay [9] has as its system RXF 393 renal.
Assay [10] deals with SK-MEL-2 melanoma.
Assay [11] relates to LOX IMVI melanoma.
Assay [12] deals with CAKI-1 renal.

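Cells were grown in 96-well plates and exposed to each compound for 48 hours at five concentrations; endpoints were interpolated linearly between bracketing concentrations, or set to the highest concentration if not reached. Definition used: TGI = concentration required for complete inhibition of growth.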 Where only a bound is given, the exact number is not on record here.

`CC1(O)/C(=N/O)CC2CC1C2(C)C` (configuration not stated): the TGI in assay [1], in assay [2], in assay [3], in [4], in [5] and in assay [6] was above 100 µM each time. Besides, the TGI in assay [7], in assay [8], in assay [9], in assay [10] and in assay [11] was above 100 µM each time.
As for `CCCCCCCCCCCCCCCCP(=O)(O)OP(=O)(O)OCC1OC(n2cnc3c(N)ncnc32)C(O)C1O` (configuration not stated), the TGI was 69.2 µM in [1]; 97.4 µM in assay [2]; 58.4 µM in [3]; 35.9 µM in assay [4]; above 100 µM in assay [5]; above 100 µM in assay [6]. For the same compound, the TGI in [7] was 88.1 µM; in [12], 64.4 µM; in assay [8], 96.7 µM; in [10] it was above 100 µM; in assay [11], 70.5 µM.
With `O=c1cc(-c2cccc(OC(F)(F)F)c2)[nH]c2cc3c(cc12)OCO3`, the TGI was 1.1 µM in assay [3]; 16.3 µM in [4]; above 32.2 µM in assay [5]; above 100 µM in assay [6]; 3.92 µM in assay [7]; above 100 µM in assay [12]. Moreover, the TGI was 0.0367 µM in assay [8], above 89.4 µM in assay [9] and 0.628 µM in assay [10].
As to `C[Si](C)(C)OC1c2[nH]c3ccccc3c2CN2C(=O)CCC12` (configuration not stated), the TGI in assay [1], in assay [3], in assay [4], in assay [5], in [6] and in assay [7] was above 100 µM each time. In addition, the TGI in [12], in assay [8], in [10] and in assay [11] was above 100 µM each time.
For `O=C1CCCC2=C1CC1=C(CCCC1=O)N2c1cccc2ccccc12`, the TGI in assay [1], in assay [2], in assay [3], in [4], in assay [6] and in [7] was above 100 µM in each case. The TGI is above 100 µM in assay [12], 54.4 µM in assay [9] and above 100 µM in [11].
Turning to `N#CS/C(Cl)=C(/C(Cl)=C(Cl)Cl)[N+](=O)[O-]`, the TGI in assay [1] was above 100 µM; in [2], above 100 µM; in assay [3] it was above 100 µM; in assay [4], above 100 µM; in assay [5], above 100 µM; in [6], 86.5 µM. In addition, the TGI in assay [7] was 48.9 µM; in assay [12], above 100 µM; in assay [9], above 100 µM; in assay [11], 39.8 µM.
Turning to `CNC(=O)CCNC(=O)CCC(=O)OC`, the TGI in assay [1], in assay [3], in assay [5], in [6], in assay [7] and in assay [12] was above 100 µM in each case. Besides, the TGI in [8], in assay [9] and in [10] was above 100 µM in each case.
Turning to `Cc1c2c(n(CCc3ccccc3)c1C)NN=C(C#N)S2(=O)=O`, the TGI in [1], in [3], in assay [4], in [5], in [6] and in assay [7] was above 100 µM in each case. Moreover, the TGI in assay [8], in [10] and in [11] was above 100 µM throughout.
As to `CC(C)CCC[C@@H](C)C1CCC2[C@@H]3CCC4CC(CCC=C(c5cc(Cl)c(OC(=O)c6ccccc6)c(C(=O)O)c5)c5cc(Cl)c(OC(=O)c6ccccc6)c(C(=O)O)c5)CC[C@]4(C)C3CC[C@@]21C` (some centres not stated), the TGI in [1] is above 100 µM; in [2], above 100 µM; in [3], above 100 µM; in assay [4], 94.3 µM; in assay [5] it was above 100 µM; in assay [7], above 100 µM. The TGI in assay [12], in [8], in [9] and in assay [10] was above 100 µM in each case.
In the case of `Cc1ccc(S(=O)(=O)NNC(=S)Nc2cccc3ccccc23)cc1`, the TGI in assay [1], in assay [2], in assay [3], in [4], in assay [5] and in assay [6] was above 100 µM in each case. Moreover, the TGI in assay [12], in [8], in assay [9] and in assay [10] was above 100 µM throughout.
In the case of `Cc1sc2nc3n(c(=O)c2c1C)N=C(c1ccc(Cl)cc1)CS3`, the TGI in assay [1], in assay [2], in [3], in assay [5], in assay [6] and in [7] was above 100 µM each time. The TGI in assay [12], in [8], in assay [9] and in [11] was above 100 µM in each case.
Take `CC1[C@@H](OCc2ccccc2)COC(=O)N1Cc1ccccc1` (some centres not stated): the TGI in assay [1], in [2], in [4], in assay [5], in [6] and in assay [7] was above 100 µM throughout. Moreover, the TGI in assay [8], in assay [10] and in [11] was above 100 µM in each case.
For `O=C1CCCc2cc3c(cc21)CCC3C(=O)O` (configuration not stated), the TGI in assay [1], in assay [2], in assay [3], in assay [4], in [5] and in assay [6] was above 100 µM each time. In addition, the TGI in [12], in assay [9], in [10] and in [11] was above 100 µM throughout.
As to `CNC(=O)c1n[nH][nH]c1=O`, the TGI in assay [1], in assay [2], in [4], in assay [5], in assay [6] and in assay [12] was above 100 µM throughout. Moreover, the TGI in assay [8], in assay [9], in [10] and in assay [11] was above 100 µM throughout.
For `NC1CC(=O)c2cc(Br)sc21` (configuration not stated), the TGI in assay [1], in assay [2], in assay [3], in assay [4], in assay [5] and in assay [6] was above 100 µM throughout. In addition, the TGI in [7], in assay [12], in [8], in assay [9] and in assay [10] was above 100 µM in each case.
For `CC(C)CC1c2[nH]c3ccccc3c2C[C@H]2C(=O)NC(CCC(=O)OC(C)(C)C)C(=O)N12` (some centres not stated), the TGI in assay [1] is above 100 µM; in assay [4], above 100 µM; in [5], 39.6 µM; in assay [6], above 100 µM; in assay [7], 41.7 µM; in [12], above 100 µM. For the same compound, the TGI was determined as 97.4 µM in [8], 72 µM in [9], 43.8 µM in assay [10] and 60.6 µM in [11].
For the compound `COC12C=CC(CC1)C1C(=O)c3c(C)c(C)n(C)c3C(=O)C12` (configuration not stated), the TGI in assay [1], in [2], in assay [3], in assay [4], in assay [5] and in assay [7] was above 100 µM in each case. Further, the TGI in assay [8], in assay [9], in assay [10] and in assay [11] was above 100 µM throughout.
For the compound `O=C1N=C(c2ccccc2)O/C1=C\c1ccccc1`, the TGI in assay [1], in [3], in [4], in [5], in [6] and in assay [7] was above 100 µM each time. For the same compound, the TGI in [12], in assay [8], in assay [9], in assay [10] and in assay [11] was above 100 µM each time.
Consider `C=C[C@@]1(C)CC(=O)[C@]2(O)[C@@]3(C)[C@@H](OC(C)=O)CCC(C)(C)[C@@H]3[C@H](OC(C)=O)[C@H](OC(C)=O)[C@@]2(C)O1`, for which the TGI in assay [1], in assay [3], in assay [4], in [6], in assay [7] and in [12] was above 100 µM in each case. Moreover, the TGI in assay [8], in assay [10] and in assay [11] was above 100 µM each time.
For `CC1=NN(C(=O)Cc2ccccc2)C(=O)/C1=C\C=C\c1ccccc1`, the TGI in assay [2], in [5], in assay [6], in [7], in assay [12] and in assay [10] was above 100 µM in each case. Besides, the TGI in assay [11] was above 100 µM.
In the case of `Cc1cc(Cl)ccc1N=NC(=O)NNc1ccc(Cl)cc1C`, the TGI in assay [1] came out at 24.8 µM; in [2] it was 58.5 µM; in assay [3] it was 27.4 µM; in assay [4] it was 20.7 µM; in assay [6] it was 30.7 µM; in [7], 31 µM. Further, the values for the TGI in assay [8], in [10] and in assay [11] were 39.7 µM, 28 µM and 30.6 µM, respectively.
As to `COc1ccc(CN(CCc2c[nH]c3ccccc23)Cc2ccc(OC)cc2)cc1`, the TGI in assay [1] is 5.6 µM; in [2], above 100 µM; in assay [3], above 61.7 µM; in [4], 9.49 µM; in assay [6], above 80.4 µM; in assay [7], 9.25 µM. The TGI in assay [12] is above 30.2 µM; in assay [8] it was 11.7 µM; in assay [9], 10.8 µM; in [10] it was 8.29 µM.
With `CCCCCc1c2nc(c(CCCCC)c3ccc([nH]3)c(CCCCC)c3ccc([nH]3)c(CCCCC)c3nc1C=C3)C=C2`, the TGI in [1], in assay [2], in assay [3], in [4], in assay [5] and in assay [6] was above 100 µM in each case. The TGI in [7], in assay [12], in [8], in assay [10] and in assay [11] was above 100 µM throughout.
Take `CC1NC(/C(=C/c2ccccc2O)NC(=O)c2ccccc2)OC1=O` (configuration not stated): the TGI in [1], in [2], in assay [4], in assay [5], in assay [6] and in [7] was above 50 µM each time. The TGI in assay [12], in assay [8], in [10] and in [11] was above 50 µM each time.
`CC(C)(C)[C@H]1CO[C@]2(C)[C@@H]3C[C@@H]3C(=O)N12`: the TGI in assay [1], in assay [2], in assay [3], in assay [4], in assay [5] and in assay [6] was above 100 µM in each case. Besides, the TGI in assay [7], in assay [12], in [9], in assay [10] and in [11] was above 100 µM in each case.
On to `CCOC(=O)c1nc2ccc(C(F)(F)F)cc2nc1Oc1ccc(F)cc1`, for which the TGI in assay [1], in [2], in [3], in assay [4], in [5] and in [6] was above 100 µM each time. In addition, the TGI in assay [12], in assay [8], in [9], in assay [10] and in assay [11] was above 100 µM throughout.
